Test: in vitro
Details: human, Caco-2

In order of rising Papp:
1. COc1cc(C(C)C)c(Oc2cnc(N)nc2N)cc1S(N)(=O)=O [GEFAPIXANT]  0.7 ×10⁻⁶ cm/s
2. COc1cc(C(C)C)c(Oc2cnc(N)nc2N)cc1I  30.6 ×10⁻⁶ cm/s
3. COc1ccc(OC)c(CCn2cnc3sc4c(c3c2=O)CCC(C(=O)N(C)C)C4)c1 (stereo not drawn)  46.8 ×10⁻⁶ cm/s

Reference: ChEMBL document CHEMBL4425152, “New P2X3 receptor antagonists. Part 1: Discovery and optimization of tricyclic compounds” (Bioorg Med Chem Lett, 2016)
